Drawing on patent US11746100B2 (GLOBAL BLOOD THERAPEUTICS, INC., priority 2020, dated 2023), this text covers pEC50 for 27 molecules.

This experiment has as its target T1, human ferroportin (Homo sapiens, UniProt Q9NP59).
T1 construct: luciferase reporter (read with the Nano-Glo Luciferase Assay System); expressed in transfected cells; host or cells: CHO cells, stably transfected, expression induced with doxycycline
T1 sequence (Q9NP59 1-571): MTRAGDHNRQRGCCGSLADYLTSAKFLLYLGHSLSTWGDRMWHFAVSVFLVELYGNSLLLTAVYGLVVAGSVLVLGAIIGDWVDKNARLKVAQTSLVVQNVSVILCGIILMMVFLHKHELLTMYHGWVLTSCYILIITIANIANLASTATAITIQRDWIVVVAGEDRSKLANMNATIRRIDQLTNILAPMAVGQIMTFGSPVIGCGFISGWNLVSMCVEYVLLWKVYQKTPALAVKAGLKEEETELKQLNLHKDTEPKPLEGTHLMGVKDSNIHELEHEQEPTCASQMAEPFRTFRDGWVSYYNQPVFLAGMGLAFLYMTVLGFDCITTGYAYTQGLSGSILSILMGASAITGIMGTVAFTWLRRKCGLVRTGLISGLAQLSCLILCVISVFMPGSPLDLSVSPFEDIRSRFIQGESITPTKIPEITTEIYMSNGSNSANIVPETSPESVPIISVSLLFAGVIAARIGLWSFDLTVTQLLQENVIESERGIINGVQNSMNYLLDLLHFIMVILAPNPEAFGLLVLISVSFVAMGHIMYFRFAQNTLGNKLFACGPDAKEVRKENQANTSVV
The experiment in a line: Biological in-vitro ferroportin internalization assay (luciferase reporter). The experiment is classed as cell-based. The following applies: average pEC50; stably-transfected CHO cell line expressing human ferroportin tagged to a luciferase reporter; 6 h incubation with test compound. The method, boiled down:
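Stably transfected CHO cells expressing luciferase-tagged human ferroportin, plated 24 h with ferric ammonium citrate and induced with doxycycline for 24 h. Compounds incubated 6 h, then luciferase activity measured by Nano-Glo; average pEC50 reported.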
In general terms: A reporter such as luciferase makes a cellular process visible.

As a reminder, the pEC50 is the EC50 on a negative log10 scale, so that one unit is a factor of ten. Low readings indicate a high EC50, high ones a low EC50. In the case of `CN(CC(=O)Nc1ccc(C2CC2)nc1)c1nc(-c2cc(OCCO)ccn2)nc2c1CCC2` [Compound 308, N-(6-cyclopropylpyridin-3-yl)-2-({2-[4-(2-hydroxyethoxy)pyridin-2-yl]-5H,6H,7H-cyclopenta[d]pyrimidin-4-yl}(methyl)amino)acetamide], the negative logarithm of the EC50 (pEC50) is 8.1.
For `COc1ccc(NC(=O)[C@@H](C)N(C)c2nc(-c3cc(OCCO)ccn3)nc3c2CCC3)cn1` [Compound 309, (2R)-2-({2-[4-(2-hydroxyethoxy)pyridin-2-yl]-5H,6H,7H-cyclopenta[d]pyrimidin-4-yl}(methyl)amino)-N-(6-methoxypyridin-3-yl)propanamide], the pEC50 is listed as 8.1.
Consider `C[C@H](C(=O)Nc1cnn(C)c1)N(C)c1nc(-c2cc(OCCO)ccn2)nc2c1CCC2` [Compound 310, (2R)-2-({2-[4-(2-hydroxyethoxy)pyridin-2-yl]-5H,6H,7H-cyclopenta[d]pyrimidin-4-yl}(methyl)amino)-N-(1-methyl-1H-pyrazol-4-yl)propanamide], for which the pEC50 is listed as 7.4.
Take `C[C@H](C(=O)NC(C)(C)C)N(C)c1nc(-c2cc(OCCO)ccn2)nc2c1CCC2` [Compound 311, (2R)-N-tert-butyl-2-({2-[4-(2-hydroxyethoxy)pyridin-2-yl]-5H,6H,7H-cyclopenta[d]pyrimidin-4-yl}(methyl)amino)propanamide]: the pEC50 stood at 8.4.
`COc1ccc(NC(=O)[C@@H](C)N(C)c2nc(-c3cc(OC4COC4)ccn3)nc3c2CCC3)cn1` [Compound 312, (2R)-N-(6-methoxypyridin-3-yl)-2-[methyl({2-[4-(oxetan-3-yloxy)pyridin-2-yl]-5H,6H,7H-cyclopenta[d]pyrimidin-4-yl})amino]propanamide] yielded a pEC50 of 7.7.
Next, `CN(CC(=O)Nc1ccc(F)cc1)c1nc(-c2cc3cnn(C)c3cn2)nc2c1CCC2` [Compound 313, N-(4-fluorophenyl)-2-[methyl(2-{1-methyl-1H-pyrazolo[3,4-c]pyridin-5-yl}-5H,6H,7H-cyclopenta[d]pyrimidin-4-yl)amino]acetamide]: 7.3; `CN(CC(=O)Nc1ccc(F)cc1)c1nc(-c2cc3cn(C)nc3cn2)nc2c1CCC2` [Compound 314, N-(4-fluorophenyl)-2-[methyl(2-{2-methyl-2H-pyrazolo[3,4-c]pyridin-5-yl}-5H,6H,7H-cyclopenta[d]pyrimidin-4-yl)amino]acetamide]: 7.6; `CN(Cc1ncnn1-c1cccc(F)c1)c1nc(-c2cc(OCCO)ccn2)nc2c1CCC2` [Compound 315, 2-({2-[4-({[1-(3-fluorophenyl)-1H-1,2,4-triazol-5-yl]methyl}(methyl)amino)-5H,6H,7H-cyclopenta[d]pyrimidin-2-yl]pyridin-4-yl}oxy)ethan-1-ol]: 6.8.
Regarding `Cc1ccc(NC(=O)[C@@H](C)N(C)c2nc(-c3cc(OCCO)ccn3)nc3c2CCC3)cn1` [Compound 316, (2R)-2-({2-[4-(2-hydroxyethoxy)pyridin-2-yl]-5H,6H,7H-cyclopenta[d]pyrimidin-4-yl}(methyl)amino)-N-(6-methylpyridin-3-yl)propanamide], the pEC50 is given as 7.8.
On to `CN(CC(=O)NC(C)(C)C)c1nc(-c2cc(O[C@H]3CCOC3)ccn2)nc2c1CCC2` [Compound 317, N-tert-butyl-2-[methyl(2-{4-[(3S)-oxolan-3-yloxy]pyridin-2-yl}-5H,6H,7H-cyclopenta[d]pyrimidin-4-yl)amino]acetamide], for which the pEC50 is reported as 7.9.
Next, `CN(CC(=O)NC(C)(C)C)c1nc(-c2cc(O[C@@H]3CCOC3)ccn2)nc2c1CCC2` [Compound 318, N-tert-butyl-2-[methyl(2-{4-[(3R)-oxolan-3-yloxy]pyridin-2-yl}-5H,6H,7H-cyclopenta[d]pyrimidin-4-yl)amino]acetamide]: 7.9; `CN(Cc1nncn1-c1cccc(F)c1)c1nc(-c2cc(OCCO)ccn2)nc2c1CCC2` [Compound 319]: 6.4; `CN(c1nc(-c2cc(OCCO)ccn2)nc2c1CCC2)[C@H]1CCCN(c2cccc(F)c2)C1=O` [Compound 320, (3S)-1-(3-fluorophenyl)-3-({2-[4-(2-hydroxyethoxy)pyridin-2-yl]-5H,6H,7H-cyclopenta[d]pyrimidin-4-yl}(methyl)amino)piperidin-2-one]: 7.1.
`CN(c1nc(-c2cc(OCCO)ccn2)nc2c1CCC2)[C@@H]1CCCN(c2cccc(F)c2)C1=O` [Compound 321, (3R)-1-(3-fluorophenyl)-3-({2-[4-(2-hydroxyethoxy)pyridin-2-yl]-5H,6H,7H-cyclopenta[d]pyrimidin-4-yl}(methyl)amino)piperidin-2-one] displayed a negative logarithm of the EC50 (pEC50) of 7.1.
Next, `CN(CC(=O)N(C)C(C)(C)C)c1nc(-c2cc(OC3COC3)ccn2)nc2c1CCC2` [Compound 322, N-tert-butyl-N-methyl-2-[methyl({2-[4-(oxetan-3-yloxy)pyridin-2-yl]-5H,6H,7H-cyclopenta[d]pyrimidin-4-yl})amino]acetamide]: 7.7; `CN(CC(=O)N1CCCCC1)c1nc(-c2cc(OC3COC3)ccn2)nc2c1CCC2` [Compound 323, 2-[methyl({2-[4-(oxetan-3-yloxy)pyridin-2-yl]-5H,6H,7H-cyclopenta[d]pyrimidin-4-yl})amino]-1-(piperidin-1-yl)ethan-1-one]: 7.5.
Next, `Cc1ccc(NC(=O)CN(C)c2nc(-c3cc(OC4COC4)ccn3)nc3c2CCC3)cn1` [Compound 324, 2-[methyl({2-[4-(oxetan-3-yloxy)pyridin-2-yl]-5H,6H,7H-cyclopenta[d]pyrimidin-4-yl})amino]-N-(6-methylpyridin-3-yl)acetamide]: 7.4.
For `CN(CC(=O)Nc1ccc(Cl)cc1)c1nc(-c2cc(OC3COC3)ccn2)nc2c1CCC2` [Compound 325, N-(4-chlorophenyl)-2-[methyl({2-[4-(oxetan-3-yloxy)pyridin-2-yl]-5H,6H,7H-cyclopenta[d]pyrimidin-4-yl})amino]acetamide], the pEC50 was 7.9.
Turning to `Cc1ccc(NC(=O)CN(C)c2nc(-c3cc(OC4COC4)ccn3)nc3c2CCC3)cc1` [Compound 326, 2-[methyl({2-[4-(oxetan-3-yloxy)pyridin-2-yl]-5H,6H,7H-cyclopenta[d]pyrimidin-4-yl})amino]-N-(4-methylphenyl)acetamide], the pEC50 was found to be 7.9.
With `COc1ccc(NC(=O)CN(C)c2nc(-c3cc(OC4COC4)ccn3)nc3c2CCC3)cc1` [Compound 327, N-(4-methoxyphenyl)-2-[methyl({2-[4-(oxetan-3-yloxy)pyridin-2-yl]-5H,6H,7H-cyclopenta[d]pyrimidin-4-yl})amino]acetamide] the figure was 7.9.
The molecule `CN(CC(=O)NC(C)(C)C)c1nc(-c2cc3ncsc3cn2)nc2c1CCC2` [Compound 328, N-tert-butyl-2-[methyl(2-{[1,3]thiazolo[5,4-c]pyridin-6-yl}-5H,6H,7H-cyclopenta[d]pyrimidin-4-yl)amino]acetamide] displayed a pEC50 of 6.8.
Next, `COc1ccc(NC(=O)CN(C)c2nc(-c3cc4ncsc4cn3)nc3c2CCC3)cn1` [Compound 329, N-(6-methoxypyridin-3-yl)-2-[methyl(2-{[1,3]thiazolo[5,4-c]pyridin-6-yl}-5H,6H,7H-cyclopenta[d]pyrimidin-4-yl)amino]acetamide]: 6.8; `Cc1ccc(NC(=O)CN(C)c2nc(-c3cc(OCC4(O)CC4)ccn3)nc3c2CCC3)cn1` [Compound 330, 2-[(2-{4-[(1-hydroxycyclopropyl)methoxy]pyri-din-2-yl}-5H,6H,7H-cyclopenta[d]pyrimidin-4-yl)(methyl)amino]-N-(6-methylpyridin-3-yl)acetamide]: 7.8.
Consider `Cc1ccc(NC(=O)CN(C)c2nc(-c3cc(OCCO)ccn3)nc3c2C(C)(C)CC3)cn1` [Compound 331, 2-({2-[4-(2-hydroxyethoxy)pyridin-2-yl]-5,5-dimethyl-5H,6H,7H-cyclopenta[d]pyrimidin-4-yl}(methyl)amino)-N-(6-methylpyridin-3-yl)acetamide], for which the pEC50 was determined as 8.3.
Next, `COc1ccc(N(C)C(=O)CN(C)c2nc(-c3cc(OCCO)ccn3)nc3c2CCC3)cc1` [Compound 334, 2-({2-[4-(2-hydroxyethoxy)pyridin-2-yl]-5H,6H,7H-cyclopenta[d]pyrimidin-4-yl}(methyl)amino)-N-(4-methoxyphenyl)-N-methylacetamide]: 7.2.
Next, `COc1ccc2c(c1)CCN2C(=O)CN(C)c1nc(-c2cc(OCCO)ccn2)nc2c1CCC2` [Compound 335, 2-({2-[4-(2-hydroxyethoxy)pyridin-2-yl]-5H,6H,7H-cyclopenta[d]pyrimidin-4-yl}(methyl)amino)-1-(5-methoxy-2,3-dihydro-1H-indol-1-yl)ethan-1-one]: 8.4; `CN(CC(=O)NC(C)(C)C)c1nc(-c2cc3cn(C)nc3cn2)nc2c1CCC2` [Compound 336, N-tert-butyl-2-[methyl(2-{2-methyl-2H-pyrazolo[3,4-c]pyridin-5-yl}-5H,6H,7H-cyclopenta[d]pyrimidin-4-yl)amino]acetamide]: 7.8.
